In ChEMBL document CHEMBL5550161, “Discovery of novel small molecules targeting the USP21/JAK2/STAT3 axis for the treatment of triple-negative breast cancer” (Eur J Med Chem, 2024):
Calls of active or inactive are those of the source. The calls are words filed in the database; no cut-off is given here.

Columns and labels:
[1] = test system: HCC1806; assay: Inhibition of cell migration in human HCC1806 cells; assay type: functional, cell-based; settings: dose 0.05-2 µM
[2] = Half life in Sprague-Dawley rat at 4 mg/kg, ip; assay type: ADME, organism-based; settings: in vivo
[3] = test system: MDA-MB-231; assay: Induction of apoptosis in human MDA-MB-231 cells assessed as early apoptotic cells at 1.6 uM incubated for 24 hrs by Annexin V-FITC/PI staining based flow cytometry (reference value: 1.16 %); assay type: functional
[4] = test system: HCC1806; assay: Induction of apoptosis in human HCC1806 cells assessed as viable cells at 0.2 uM incubated for 24 hrs by Annexin V-FITC/PI staining based flow cytometry (reference value: 98.95 %); assay type: functional; settings: read-out: Activity
[5] = test system: HCC1806; assay: Induction of apoptosis in human HCC1806 cells assessed as necrotic cells at 0.1 uM incubated for 24 hrs by Annexin V-FITC/PI staining based flow cytometry (reference value: 0.15 %); assay type: functional
[6] = test system: HCC1806; assay: Induction of apoptosis in human HCC1806 cells assessed as necrotic cells at 0.2 uM incubated for 24 hrs by Annexin V-FITC/PI staining based flow cytometry (reference value: 0.15 %); assay type: functional
[7] = test system: MDA-MB-231; assay: Induction of apoptosis in human MDA-MB-231 cells assessed as necrotic cells at 1.6 uM incubated for 24 hrs by Annexin V-FITC/PI staining based flow cytometry (reference value: 0.07 %); assay type: functional
[8] = test system: HCC1806; assay: Induction of apoptosis in human HCC1806 cells assessed as early apoptotic cells at 0.8 uM incubated for 24 hrs by Annexin V-FITC/PI staining based flow cytometry (reference value: 0.67 %); assay type: functional
[9] = test system: MDA-MB-231; assay: Induction of apoptosis in human MDA-MB-231 cells assessed as early apoptotic cells at 0.8 uM incubated for 24 hrs by Annexin V-FITC/PI staining based flow cytometry (reference value: 1.16 %); assay type: functional
[10] = test system: MCF7; assay: Anti-proliferative activity against human MCF7 cells assessed as cell growth inhibition incubated for 72 hrs by MTT assay; assay type: functional, cell-based; settings: MCF7, 72 h
[11] = test system: MDA-MB-231; assay: Inhibition of cell invasion in human MDA-MB-231 cells; assay type: functional, cell-based; settings: dose 0.05-2 µM
[12] = test system: HCC1806; assay: Induction of apoptosis in human HCC1806 cells assessed as necrotic cells at 0.8 uM incubated for 24 hrs by Annexin V-FITC/PI staining based flow cytometry (reference value: 0.15 %); assay type: functional
[13] = test system: HCC1806; assay: Downregulation of CUL5 level in human HCC1806 cells at 0.1 to 0.4 uM incubated for 24 hrs by Western blot analysis; assay type: functional, cell-based; settings: dose 0.1-0.4 µM
[14] = test system: MDA-MB-231; assay: Induction of apoptosis in human MDA-MB-231 cells assessed as viable cells at 0.2 uM incubated for 24 hrs by Annexin V-FITC/PI staining based flow cytometry (reference value: 97.54 %); assay type: functional; settings: read-out: Activity
[15] = test system: HCC1806; assay: Downregulation of USP21 level in human HCC1806 cells at 0.1 to 0.4 uM incubated for 24 hrs by Western blot analysis; assay type: functional, cell-based; settings: dose 0.1-0.4 µM
[16] = test system: MDA-MB-231; assay: Induction of apoptosis in human MDA-MB-231 cells assessed as early apoptotic cells at 0.1 uM incubated for 24 hrs by Annexin V-FITC/PI staining based flow cytometry (reference value: 1.16 %); assay type: functional
[17] = test system: MDA-MB-231; assay: Induction of apoptosis in human MDA-MB-231 cells assessed as viable cells at 0.8 uM incubated for 24 hrs by Annexin V-FITC/PI staining based flow cytometry (reference value: 97.54 %); assay type: functional; settings: read-out: Activity
[18] = test system: HCC1806; assay: Anti-proliferative activity against human HCC1806 cells assessed as cell survival; assay type: functional; settings: dose < 0.4 µM; time 24 hrs
[19] = test system: HCC1806; assay: Inhibition of cell invasion in human HCC1806 cells; assay type: functional, cell-based; settings: dose 0.05-2 µM
[20] = test system: HCC1806; assay: Induction of apoptosis in human HCC1806 cells assessed as late apoptotic cells at 1.6 uM incubated for 24 hrs by Annexin V-FITC/PI staining based flow cytometry (reference value: 0.23 %); assay type: functional
[21] = test system: HCC1806; assay: Induction of apoptosis in human HCC1806 cells assessed as viable cells at 0.8 uM incubated for 24 hrs by Annexin V-FITC/PI staining based flow cytometry (reference value: 98.95 %); assay type: functional; settings: read-out: Activity
[22] = Toxicity in Balb/c nude mouse assessed as histopathological change in kidney at 60 mg/kg, ip bid for 14 days consecutively; assay type: organism-based; settings: in vivo, 336 h, time 14 day
[23] = test system: HCC1806; assay: Induction of apoptosis in human HCC1806 cells assessed as late apoptotic cells at 0.1 uM incubated for 24 hrs by Annexin V-FITC/PI staining based flow cytometry (reference value: 0.23 %); assay type: functional
[24] = test system: MDA-MB-231; assay: Induction of apoptosis in human MDA-MB-231 cells assessed as decrease in STAT3 phosphorylation at Y705 by Western blot analysis; assay type: functional, cell-based; settings: dose 0.1-0.4 µM
[25] = test system: HCC1806; assay: Antitumor activity against human HCC1806 cells xenografted in Balb/c mouse assessed as reduction in tumor weight at 40 to 60 mg/kg, ip bid measured after 14 days; assay type: functional, organism-based; settings: dose 40-60 mg/kg, time 14.0 day

COc1cc(Nc2cc(F)ccc2C(=O)NCCc2c[nH]c3c(F)ccc(F)c23)cc(OC)c1OC
inhibition [1]: Active | half-life [2]: 5.57 h | Activity [3]: 7.55% | viability at 0.2 µM [4]: 98.1% | Activity [5]: 0.11% | Activity [6]: 0.33% | Activity [7]: 0.09% | Activity [8]: 4.23% | Activity [9]: 3.18% | IC50 [10]: 1450 nM | inhibition [11]: Active | Activity [12]: 0.29% | Activity [13]: Active | viability at 0.2 µM [14]: 96.1% | Activity [15]: Active | Activity [16]: 1.66% | viability at 0.8 µM [17]: 94.6% | Survival [18]: >80% | inhibition [19]: Active | Activity [20]: 1.92% | viability at 0.8 µM [21]: 94% | Activity [22]: Non-Toxic | Activity [23]: 0.29% | Activity [24]: Active | Activity [25]: Active
